≈ marks a conversion by molar mass, not a printed value.
Legend:
Assay in all cases: MIC, conventional serial broth dilution assay in nutrient broth (Difco)
Type in all cases: cell-based
[1] = test system: Enterococcus faecalis A20688
[2] = test system: Staphylococcus aureus/β-lactamase positive A15090
[3] = test system: Staphylococcus haemolyticus A27298
[4] = test system: Moraxella catarrhalis/β-lactamase positive A22344
[5] = test system: Staphylococcus aureus/homo methicillin resistant A27223
[6] = test system: Streptococcus pneumoniae A9585
[7] = test system: Staphylococcus epidermidis A24548
[8] = test system: Streptococcus pneumoniae/penicillin resistant A28272
[9] = test system: Haemophilus influenzae/β-lactamase negative A20191
[10] = test system: Bacillus subtilis/ATCC #6633 A9506A; conditions: ATCC6633
[11] = test system: Haemophilus influenzae/β-lactamase positive A21515
[12] = test system: Staphylococcus aureus/209P/ATCC #6538P A9497
[13] = test system: Bacillus subtilis/Thiostrep. Res/Mutant A9506A
[14] = test system: Staphylococcus aureus/QC/ATCC #29213 A24407; conditions: ATCC29213
[15] = test system: Staphylococcus aureus/Thiostrep. Res/Mutant A9497
[16] = test system: Streptococcus pneumoniae/penicillin intermediate A27881
[17] = test system: Enterococcus faecium A24885
[18] = test system: Moraxella catarrhalis/β-lactamase positive A25409
[19] = test system: Enterococcus avium A27456
[20] = test system: Enterococcus faecalis A27519
[21] = A20688, Enterococcus faecalis A20688
[22] = A20688, Enterococcus faecalis A20688 +50% calf serum
[23] = Staphylococcus aureus A15090 + 50% calf serum
[24] = Staphylococcus aureus/β-lactamase positive A15090
[25] = Staphylococcus aureus A27223 + 50% calf serum
[26] = Staphylococcus aureus/homo methicillin resistant A27223

Compound	MIC [1, 21]	MIC [1, 22]	MIC [2, 23]	MIC [2, 24]	MIC [3]	MIC [4]	MIC [5, 25]	MIC [5, 26]	MIC [6]	MIC [7]	MIC [8]	MIC [14]	MIC [16]	MIC [17]	also measured
C=C(NC(=O)c1csc(-c2nc3c(cc2O)-c2nc(cs2)C(=O)NC(C(C)O)C(=O)NC(=C(C)OC)c2nc(cs2)C(=O)NC2c4nc(cs4)C(=O)NC(COC(=O)c4c5c6c(cc(F)cc6n4O)COC(=O)C(OC4CC(C)(O)C(N(C)C)C(C)O4)C2OC5)c2nc-3cs2)n1)C(N)=O (stereo not shown) [6-Fluoronocathiacin, 6-fluoronocathiacin]	< 0.001 µg/mL	0.015 µg/mL (≈ 10.3 nM)	0.015 µg/mL	0.002 µg/mL (≈ 1.37 nM)	4 ng/mL (≈ 2.75 nM)	0.25 µg/mL (≈ 172 nM)	15 ng/mL	2 ng/mL (≈ 1.37 nM)	< 0.5 ng/mL	4 ng/mL (≈ 2.75 nM)	< 0.5 ng/mL	0.002 µg/mL (≈ 1.37 nM)	< 0.5 ng/mL	0.004 µg/mL (≈ 2.75 nM)	MIC [9]: > 16 µg/mL; MIC [10]: 2 ng/mL (≈ 1.37 nM); MIC [11]: > 16 µg/mL; MIC [12]: 2 ng/mL (≈ 1.37 nM); MIC [13]: > 32 µg/mL; MIC [15]: 16 µg/mL (≈ 11000 nM)
C=C(NC(=O)c1csc(-c2nc3c(cc2O)-c2nc(cs2)C(=O)NC(C(C)O)C(=O)NC(=C(C)OC)c2nc(cs2)C(=O)NC2c4nc(cs4)C(=O)NC(COC(=O)c4c5c6c(c(F)ccc6n4O)COC(=O)C(OC4CC(C)(O)C(N(C)C)C(C)O4)C2OC5)c2nc-3cs2)n1)C(N)=O (stereo not shown) [5-Fluoronocathiacin, 5-fluoronocathiacin]	0.25 µg/mL (≈ 172 nM)	0.25 µg/mL (≈ 172 nM)	0.125 µg/mL	0.125 µg/mL (≈ 85.9 nM)	3 ng/mL (≈ 2.06 nM)	0.06 µg/mL (≈ 41.2 nM)	3 ng/mL	3 ng/mL (≈ 2.06 nM)	≤ 2 ng/mL	7 ng/mL (≈ 4.81 nM)	≤ 2 ng/mL	0.125 µg/mL (≈ 85.9 nM)	≤ 2 ng/mL	0.25 µg/mL (≈ 172 nM)	MIC [18]: 0.06 µg/mL (≈ 41.2 nM); MIC [19]: 0.25 µg/mL (≈ 172 nM); MIC [20]: 0.25 µg/mL (≈ 172 nM)

From US6287827A, “Halo- or hydroxy-substituted nocathiacin antibiotics” (Bristol-Myers Squibb Company, priority 2000, dated 2001)
